Measurements as given in patent US9951046B2, “TRPA1 modulators” (Algomedix, Inc., priority 2014, dated 2018).

What follows are compounds tested against T1, human TRPA1 (Homo sapiens, UniProt O75762) (assay: Cell-based functional intracellular calcium ([Ca2+]i) assay, Fluo-4/Fluo-8, FlexStation, challenge with reference TRPA1 agonist (FFA, AITC or 4-HNE)). Conditions: not given.
T1 construct: expressed in transfected cells
T1 sequence (O75762 whole entry): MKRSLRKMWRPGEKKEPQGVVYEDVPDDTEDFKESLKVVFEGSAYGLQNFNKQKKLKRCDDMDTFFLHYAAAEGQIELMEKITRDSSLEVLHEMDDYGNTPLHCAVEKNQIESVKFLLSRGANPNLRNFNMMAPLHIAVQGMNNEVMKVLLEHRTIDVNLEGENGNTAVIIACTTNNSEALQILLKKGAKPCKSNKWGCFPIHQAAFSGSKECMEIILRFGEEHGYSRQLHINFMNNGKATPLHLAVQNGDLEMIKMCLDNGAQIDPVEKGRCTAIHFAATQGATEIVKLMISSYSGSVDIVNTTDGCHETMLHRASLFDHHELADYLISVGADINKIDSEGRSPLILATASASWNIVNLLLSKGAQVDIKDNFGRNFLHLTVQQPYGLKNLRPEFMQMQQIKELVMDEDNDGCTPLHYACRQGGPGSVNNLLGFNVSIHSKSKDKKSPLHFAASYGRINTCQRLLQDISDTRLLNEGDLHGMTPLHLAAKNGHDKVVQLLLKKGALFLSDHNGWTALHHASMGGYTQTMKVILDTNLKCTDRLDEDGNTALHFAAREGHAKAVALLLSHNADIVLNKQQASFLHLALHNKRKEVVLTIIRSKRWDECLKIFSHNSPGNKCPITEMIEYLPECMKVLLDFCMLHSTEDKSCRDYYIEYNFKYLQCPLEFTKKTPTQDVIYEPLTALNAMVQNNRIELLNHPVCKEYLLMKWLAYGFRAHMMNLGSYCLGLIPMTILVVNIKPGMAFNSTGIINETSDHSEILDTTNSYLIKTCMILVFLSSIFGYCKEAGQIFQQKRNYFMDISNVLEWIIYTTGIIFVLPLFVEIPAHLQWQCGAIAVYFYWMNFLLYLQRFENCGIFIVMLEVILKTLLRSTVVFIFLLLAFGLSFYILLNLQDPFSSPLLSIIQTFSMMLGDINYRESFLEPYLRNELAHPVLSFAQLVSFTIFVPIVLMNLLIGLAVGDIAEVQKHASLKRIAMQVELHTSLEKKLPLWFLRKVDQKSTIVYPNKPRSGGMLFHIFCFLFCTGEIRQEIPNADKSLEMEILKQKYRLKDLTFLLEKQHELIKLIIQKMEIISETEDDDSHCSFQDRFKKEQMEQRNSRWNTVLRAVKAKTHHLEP
In short: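 Doxycycline-induced (1 μg/ml) HEK293 expressing human TRPA1, with 5 μM ruthenium red during induction, loaded with Fluo-4 or Fluo-8 plus 2 mM probenecid; FlexStation read at 20-25° C, sometimes with 0.1% BSA.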
In the case of `O=C(c1cc(-c2ccncc2)n(-c2cc(C(F)(F)F)cc(C(F)(F)F)c2)n1)N1CCC2(CC1)OCCO2` [Compound 160], the IC50 is reported as > 25 µM.
In the case of `CC1COC2(CCN(C(=O)c3cc(-c4ccncc4)n(-c4cnccn4)n3)CC2)O1` (centres unmarked) [Compound 135], the IC50 is reported as > 25 µM.
With `O=C(c1cc(-c2ccncc2)n(-c2ccc(F)c(F)c2)n1)N1CCC2(CC1)OCCO2` [Compound 151] the IC50 was > 25 µM.
`O=C(c1cc(-c2ccncc2)n(-c2ccc(F)c(F)c2)n1)N1CCC(N2C(=O)Cc3ccccc32)CC1` [Compound 76] was tested, and the IC50 was > 25 µM.
In the case of `O=C(c1cc(-c2ccncc2)n(-c2ccc(C(F)(F)F)nc2)n1)N1CCC2(CC1)OCCO2` [Compound 166], the IC50 is reported as > 25 µM.
For `O=C(c1cc(-c2ccncc2)n(-c2cnccn2)n1)N1CCC2(CC1)OCCO2` [Compound 169], the IC50 was > 25 µM.
`CCCC1COC2(CCN(C(=O)c3cc(-c4ccncc4)n(-c4cnccn4)n3)CC2)O1` (centres unmarked) [Compound 138] was tested, and the IC50 was > 25 µM.
In the case of `O=C(c1cc(-c2ccncc2)n(-c2ccc(C(F)(F)F)cc2)n1)N1CCC(N2C(=O)Cc3ccccc32)CC1` [Compound 54], the IC50 is reported as > 25 µM.
Compound `O=C(c1cc(-c2cccnc2)n(-c2ccc(C(F)(F)F)c(F)c2)n1)N1CCC2(CC1)C(=O)NC(=O)N2c1ccc(F)cc1` [Compound 185] has an IC50 of 5 to 25 µM.
In the case of `O=C(c1cc(-c2ccncc2)n(-c2ccc3c(c2)OCO3)n1)N1CCC2(CC1)OCCO2` [Compound 157], the IC50 is reported as > 25 µM.
For `O=C(c1cc(-c2ccncc2)n(-c2cc(F)c(F)c(F)c2)n1)N1CCC2(CC1)OCCO2` [Compound 142], the IC50 was > 25 µM.
For `O=C(c1cc(-c2ccncc2)n(-c2ccccc2)n1)N1CCC2(CC1)OCCO2` [Compound 31], the IC50 was > 25 µM.
With `CCCC1COC2(CCN(C(=O)c3cc(-c4ccncc4)n(-c4ccc(C(F)(F)F)cc4)n3)CC2)O1` (centres unmarked) [Compound 74] the IC50 was > 25 µM.

Same assay, conditions: HEK293 cells expressing human TRPA1; IC50 class after addition of reference TRPA1 agonist (FFA, AITC or 4-HNE); read-out: human TRPA1-HEK Activity
With `N#CC1(c2ccccc2)CCN(C(=O)c2cc(-c3ccncc3)n(-c3ccccc3)n2)CC1` [Compound 28] the IC50 was > 25 µM.
`O=C(c1cc(-c2ccncc2)n(-c2cccc(C(F)(F)F)c2)n1)N1CCC2(CC1)C(=O)NCN2c1ccccc1` [Compound 146] was tested, and the IC50 was 5 to 25 µM.
`O=C(c1cc(-c2cccnc2)n(-c2cc(F)c(F)c(F)c2)n1)N1CCC2(CC1)C(=O)NCN2c1ccc(F)cc1` [Compound 253] gave an IC50 of 0.001 to 5 µM.
Work on `O=C(c1cc(-c2cccnc2)n(-c2ccc(C(F)(F)F)c(F)c2)n1)N1CCC2(CC1)C(=O)Nc1ccccc12` [Compound 259] yielded an IC50 of 5 to 25 µM.
In the case of `O=C1Nc2ccccc2C1N1CCN(C(=O)c2cc(-c3cccnc3)n(-c3ccc(C(F)(F)F)c(F)c3)n2)CC1` (centres unmarked) [Compound 258], the IC50 is reported as > 25 µM.
In the case of `O=C(c1cc(-c2cccnc2)n(-c2ccc(Cl)c(C(F)(F)F)c2)n1)N1CCC(n2c(=O)[nH]c3ccc(F)c(F)c32)CC1` [Compound 295], the IC50 is reported as 0.001 to 5 µM.
`O=C(c1cc(-c2cccnc2)n(-c2ccc(OC(F)(F)F)c(F)c2)n1)N1CCC(n2c(=O)[nH]c3ccc(F)c(F)c32)CC1` [Compound 215] showed an IC50 of 0.001 to 5 µM.
With `O=C(c1cc(-c2cccnc2)n(-c2ccc(F)c(C(F)(F)F)c2)n1)N1CCC2(CC1)C(=O)NCN2c1cc(Cl)c(F)c(Cl)c1` [Compound 332] the IC50 was 0.001 to 5 µM.
For `O=C(c1cc(-c2ccncc2)n(-c2cccc(C(F)(F)F)c2)n1)N1CCC(n2c(=O)[nH]c3ccccc32)CC1` [Compound 147], the IC50 was > 25 µM.
In the case of `O=C(c1cc(-c2cccnc2)n(-c2cc(F)c(F)c(F)c2)n1)N1CCC2(CC1)C(=O)NCN2c1ccc(F)cc1F` [Compound 257], the IC50 is reported as > 25 µM.
In the case of `O=C(c1cc(-c2cccnc2)n(-c2ccc(C(F)(F)F)c(F)c2)n1)N1CCC(n2c(=O)[nH]c3ncccc32)CC1` [Compound 260], the IC50 is reported as 0.001 to 5 µM.
Work on `O=C(c1cc(-c2ccncc2)n(-c2ccc(F)c(F)c2)n1)N1CCC(n2c(=O)[nH]c3ccccc32)CC1` [Compound 150] yielded an IC50 of 5 to 25 µM.
`O=C1Nc2ccc(F)cc2C2(CCN(C(=O)c3cc(-c4cccnc4)n(-c4ccc(C(F)(F)F)c(F)c4)n3)CC2)O1` [Compound 230] was tested, and the IC50 was 0.001 to 5 µM.
Work on `N#Cc1c(F)ccc2[nH]c(=O)n(C3CCN(C(=O)c4cc(-c5cccnc5)n(-c5ccc(C(F)(F)F)c(F)c5)n4)CC3)c12` [Compound 244] yielded an IC50 of 5 to 25 µM.
In the case of `CN1C(=O)COc2cc(NC(=O)c3cc(-c4ccncc4)n(-c4ccc(C(F)(F)F)cc4)n3)ccc21` [Compound 67], the IC50 is reported as > 25 µM.
For `O=C(c1cc(-c2ccncc2)n(-c2ccc(F)c(F)c2)n1)N1CCC(c2nc3ccccc3o2)CC1` [Compound 87], the IC50 was > 25 µM.
`CC1CN(C(=O)c2cc(-c3cccnc3)n(-c3cc(F)c(F)c(F)c3)n2)CC(C)C1n1c(=O)[nH]c2ccc(F)c(F)c21` (centres unmarked) [Compound 207] was tested, and the IC50 was > 25 µM.
Work on `Cc1c(C(=O)N2CCC3(CC2)C(=O)NCN3c2ccc(F)cc2)nn(-c2ccc(C(F)(F)F)c(F)c2)c1-c1cccnc1` [Compound 265] yielded an IC50 of 0.001 to 5 µM.
`O=C(c1cc(-c2ccncc2)n(-c2ccc(C(F)(F)F)nc2)n1)N1CCC2(CC1)C(=O)NCN2c1ccc(F)cc1` [Compound 120] showed an IC50 of 5 to 25 µM.
`N#Cc1cc2[nH]c(=O)n(C3CCN(C(=O)c4cc(-c5cccnc5)n(-c5ccc(C(F)(F)F)c(F)c5)n4)CC3)c2cc1F` [Compound 234] was tested, and the IC50 was 0.001 to 5 µM.
`Cc1c(F)ccc2[nH]c(=O)n(C3CCN(C(=O)c4cc(-c5cccnc5)n(-c5cc(F)c(F)c(F)c5)n4)CC3)c12` [Compound 202] showed an IC50 of 0.001 to 5 µM.
For `Cn1c(=O)n(C2CCN(C(=O)c3cc(-c4ccncc4)n(-c4ccc(C(F)(F)F)c(F)c4)n3)CC2)c2ccccc21` [Compound 105], the IC50 was > 25 µM.
With `O=C(c1cc(-c2ccc(Cl)nc2)n(-c2ccc(C(F)(F)F)c(F)c2)n1)N1CCC(n2c(=O)[nH]c3ccc(F)c(F)c32)CC1` [Compound 239] the IC50 was 0.001 to 5 µM.
Work on `CC1CC2(CCN1C(=O)c1cc(-c3cccnc3)n(-c3ccc(F)c(C(F)(F)F)c3)n1)OC(=O)Nc1ccc(C(F)(F)F)cc12` (centres unmarked) [Compound 292] yielded an IC50 of 5 to 25 µM.
Work on `O=C(c1cc(-c2ccncc2)n(-c2cnccn2)n1)N1CCC2(CC1)C(=O)NCN2c1ccccc1` [Compound 167] yielded an IC50 of 5 to 25 µM.
For `CN1C(=O)NC2(CCN(C(=O)c3cc(-c4ccncc4)n(-c4ccccc4)n3)CC2)C1=O` [Compound 174], the IC50 was > 25 µM.
For `O=C1OC2(CCN(C(=O)c3cc(-c4ccncc4)n(-c4ccc(C(F)(F)F)nc4)n3)CC2)c2ccccc21` [Compound 123], the IC50 was > 25 µM.
With `Cc1cc(OC(F)(F)F)ccc1-n1nc(C(=O)N2CCC3(CC2)C(=O)NCN3c2ccc(F)cc2)cc1-c1cccnc1` [Compound 226] the IC50 was 0.001 to 5 µM.
For `O=C(c1cc(-c2cccnc2)n(-c2ccc(I)cc2)n1)N1CCC(n2c(=O)[nH]c3ccc(F)c(F)c32)CC1` [Compound 237], the IC50 was 0.001 to 5 µM.
`CN1C(=O)c2ccc(NC(=O)c3cc(-c4ccncc4)n(-c4ccccc4)n3)cc2C1=O` [Compound 40] was tested, and the IC50 was > 25 µM.
For `Cn1c(=O)c(=O)n(C)c2cc(NC(=O)c3cc(-c4ccncc4)n(-c4ccc(C(F)(F)F)cc4)n3)ccc21` [Compound 69], the IC50 was > 25 µM.
Work on `O=C(c1cc(-c2cccnc2)n(-c2ccc(OC(F)(F)F)cc2)n1)N1CCC(n2c(=O)[nH]c3ccc(F)c(F)c32)CC1` [Compound 220] yielded an IC50 of 0.001 to 5 µM.
In the case of `O=C(c1cc(-c2ccncc2)n(-c2ccccc2)n1)N1CCC2(CCNC2=O)CC1` [Compound 13], the IC50 is reported as > 25 µM.
`CN1C(=O)COc2cc(NC(=O)c3cc(-c4ccncc4)n(-c4cnccn4)n3)ccc21` [Compound 131] was tested, and the IC50 was > 25 µM.
For `N#Cc1ccc2[nH]c(=O)n(C3CCN(C(=O)c4cc(-c5cccnc5)n(-c5ccc(F)c(C(F)(F)F)c5)n4)CC3)c2c1` [Compound 240], the IC50 was 0.001 to 5 µM.
With `O=C(c1cc(-c2cccnc2)n(-c2ccc(F)c(C(F)(F)F)c2)n1)N1CCC(n2c(=S)[nH]c3ccc(F)c(F)c32)CC1` [Compound 291] the IC50 was 0.001 to 5 µM.
`O=C(c1cc(-c2cccnc2)n(-c2ccc(C(F)(F)F)c(F)c2)n1)N1CCC2(CC1)C(=O)NCN2c1ccc(F)c(F)c1` [Compound 181] was tested, and the IC50 was 0.001 to 5 µM.
In the case of `O=C(c1cc(-c2ccncc2)n(-c2ccc(F)c(F)c2)n1)N1CCC2(CC1)C(=O)NCN2c1ccc(Cl)cc1` [Compound 78], the IC50 is reported as > 25 µM.
In the case of `O=C(c1cc(-c2ccncc2)n(-c2ccc(C(F)(F)F)cc2)n1)N1CCC2(CC1)NCN(c1ccccc1)C2=O` [Compound 73], the IC50 is reported as > 25 µM.
`O=C(Nc1ccc2c(c1)COC2=O)c1cc(-c2ccncc2)n(-c2ccc(F)c(F)c2)n1` [Compound 92] was tested, and the IC50 was > 25 µM.
With `O=C(c1cc(-c2ccncc2)n(-c2ccc(C(F)(F)F)c(F)c2)n1)N1CC(=O)N2CCc3ccccc3C2C1` (centres unmarked) [Compound 104] the IC50 was > 25 µM.
`O=C(c1cc(-c2ccncc2)n(-c2ccccc2)n1)N1CC2(CCCC2)C1` [Compound 6] was tested, and the IC50 was > 25 µM.
In the case of `O=C(c1cc(-c2cccnc2)n(-c2ccc(I)c(C(F)(F)F)c2)n1)N1CCC2(CC1)C(=O)NCN2c1ccc(F)cc1` [Compound 326], the IC50 is reported as 0.001 to 5 µM.
With `N#Cc1ccc2c(c1)[nH]c(=O)n2C1CCN(C(=O)c2cc(-c3cccnc3)n(-c3cc(F)c(F)c(F)c3)n2)CC1` [Compound 229] the IC50 was 0.001 to 5 µM.
In the case of `O=C(c1cc(-c2ccncc2)n(-c2ccc(F)c(F)c2)n1)N1CCC(N2C(=O)OC[C@H]2c2ccccc2)CC1` [Compound 84], the IC50 is reported as > 25 µM.
Work on `O=C(c1cc(-c2ccc(Cl)nc2)n(-c2ccc(C(F)(F)F)c(F)c2)n1)N1CCC2(CC1)C(=O)NCN2c1ccc(F)cc1` [Compound 238] yielded an IC50 of 0.001 to 5 µM.
`O=C(c1cc(-c2ccccn2)n(-c2ccc(C(F)(F)F)c(F)c2)n1)N1CCC2(CC1)C(=O)NCN2c1ccc(F)cc1` [Compound 264] showed an IC50 of 5 to 25 µM.
In the case of `O=C(c1cc(-c2ccncc2)n(-c2ccc(C(F)(F)F)c(F)c2)n1)N1CCC2(CC1)C(=O)NCN2c1ccc(OC(F)(F)F)cc1` [Compound 179], the IC50 is reported as > 25 µM.
`O=C(Nc1nc(-c2ccc(F)c(C(F)(F)F)c2)cs1)c1cc(-c2ccncc2)n(-c2ccccc2)n1` [Compound 37] was tested, and the IC50 was > 25 µM.
With `O=C(Nc1ccc2c(c1)OC(F)(F)O2)c1cc(-c2ccncc2)n(-c2cnccn2)n1` [Compound 130] the IC50 was 5 to 25 µM.
In the case of `O=C(c1cc(-c2ccncc2)n(-c2ccc(C(F)(F)F)cc2)n1)N1CCC2(CC1)C(=O)NCN2c1ccccc1` [Compound 143], the IC50 is reported as 5 to 25 µM.
In the case of `O=C(c1cc(-c2ccncc2)n(-c2ccc(C(F)(F)F)nc2)n1)N1CC(=O)N2CCc3ccccc3C2C1` (centres unmarked) [Compound 125], the IC50 is reported as > 25 µM.
